Source: patent publication US8268862B2, “Sirtuin modulating compounds” (Sirtris Pharmaceuticals, Inc., priority 2007, dated 2012)

Target: T1, SIRT1 (Homo sapiens, UniProt Q96EB6)
T1 sequence (Q96EB6 1-747): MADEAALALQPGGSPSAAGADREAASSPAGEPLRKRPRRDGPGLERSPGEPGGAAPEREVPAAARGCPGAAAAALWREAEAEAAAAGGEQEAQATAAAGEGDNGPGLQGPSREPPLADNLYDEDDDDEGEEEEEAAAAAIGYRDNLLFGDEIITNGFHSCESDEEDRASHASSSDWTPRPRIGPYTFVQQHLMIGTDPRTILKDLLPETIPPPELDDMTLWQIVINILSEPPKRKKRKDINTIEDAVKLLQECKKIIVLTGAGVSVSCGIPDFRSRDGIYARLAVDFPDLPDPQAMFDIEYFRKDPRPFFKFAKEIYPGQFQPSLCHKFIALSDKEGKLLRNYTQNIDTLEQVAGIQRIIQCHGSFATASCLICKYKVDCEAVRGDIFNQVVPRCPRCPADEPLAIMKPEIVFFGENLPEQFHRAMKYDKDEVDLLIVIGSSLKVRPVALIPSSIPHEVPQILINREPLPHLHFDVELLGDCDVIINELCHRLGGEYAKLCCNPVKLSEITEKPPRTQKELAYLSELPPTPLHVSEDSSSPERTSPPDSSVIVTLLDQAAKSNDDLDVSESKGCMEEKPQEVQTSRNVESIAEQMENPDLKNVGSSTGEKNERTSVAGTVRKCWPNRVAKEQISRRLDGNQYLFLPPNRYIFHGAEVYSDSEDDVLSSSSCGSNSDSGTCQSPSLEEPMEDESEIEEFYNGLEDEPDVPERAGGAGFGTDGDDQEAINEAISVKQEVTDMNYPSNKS
Assay: mass spectrometry based SIRT1 deacetylation assay (activation)
Type: biochemical
Conditions: 0.5 μM peptide substrate, 120 μM βNAD+, 10 nM SIRT1, 25 min at 25° C.; for EC1.5 (concentration of test compound that results in 150% activation of SIRT1): NA = not active in the assay; for Emax: read-out: % FOLD ACT. (percent maximum fold activation of SIRT1)
From the text: A mass spectrometry based assay was used to identify modulators of SIRT1 activity. The mass spectrometry based assay utilizes a peptide having 20 amino acid residues as follows: Ac-EE-K(biotin)-GQSTSSHSK(Ac)NleSTEG-K(5TMR)-EE-NH2 (SEQ ID NO: 1) wherein K(Ac) is an acetylated lysine residue and Nle is a norleucine. The peptide is labeled with the fluorophore 5TMR (excitation 540 nm/emission 580 nm) at the C-terminus. The sequence of the peptide substrate is based on p53 with several modifications. In addition, the methionine residue naturally present in the sequence was replaced with the norleucine because the methionine may be susceptible to oxidation during synthesis and purification.
Test compounds may be added to the reaction as described above. […] After the 25 minute incubation with SIRT1, 10 μL of 10% formic acid is added to stop the reaction. Reactions are sealed and frozen for later mass spec analysis. Determination of the mass of the substrate peptide allows for precise determination of the degree of acetylation (i.e. starting material) as compared to deacetylated peptide (product).
A control for inhibition of sirtuin activity is conducted by adding 1 μL of 500 mM nicotinamide as a negative control at the start of the reaction (e.g., permits determination of maximum sirtuin inhibition). A control for activation of sirtuin activity is conducted using 10 nM of sirtuin protein, with 1 μL of DMSO in place of compound, to determine the amount of deacetylation of the substrate at a given timepoint within the linear range of the assay. This timepoint is the same as that used for test compounds and, within the linear range, the endpoint represents a change in velocity.
For the above assay, SIRT1 protein was expressed and purified as follows. […] The protein was expressed by induction with 1 mM IPTG as an N-terminal His-tag fusion protein at 18° C. overnight and harvested at 30,000×g. Cells were lysed with lysozyme in lysis buffer (50 mM Tris-HCl, 2 mM Tris[2-carboxyethyl]phosphine (TCEP), 10 μM ZnCl2, 200 mM NaCl) and further treated with sonication for 10 min for complete lysis. The protein was purified over a Ni-NTA column (Amersham) and fractions containing pure protein were pooled, concentrated and run over a sizing column (Sephadex S200 26/60 global). The peak containing soluble protein was collected and run on an Ion-exchange column (MonoQ). Gradient elution (200 mM-500 mM NaCl) yielded pure protein. This protein was concentrated and dialyzed against dialysis buffer (20 mM Tris-HCl, 2 mM TCEP) overnight. The protein was aliquoted and frozen at −80° C. until further use.
Sirtuin modulating compounds that activated SIRT1 were identified using the assay described above and are shown below in Table 3. The EC1.5 values represent the concentration of test compounds that result in 150% activation of SIRT1. NT means that the compound was not tested using the indicated assay. NA means that the compound was not active in the indicated assay.

SMILES	EC1.5 (concentration of test compound that results in 150% activation of SIRT1) [NM]	Emax [%]	% FOLD ACT. (percent maximum fold activation of SIRT1) [%]
O=C(Nc1ccccc1-c1nc2cc(CN3CC[C@@H](F)C3)cnc2s1)c1cccc(-c2ccccn2)c1 [Compound 26]	455	192	–
N[C@@H]1CCN(Cc2cnc3sc(-c4ccccc4NC(=O)c4ccc5ccccc5n4)nc3c2)C1 [Compound 119]	390	–	>500
O=C(Nc1ccccc1-c1nc2cc(CN3CCNCC3)cnc2s1)c1cn2ccccc2n1 [Compound 123]	1940	400	–
Cc1nc(-c2cccnc2)sc1C(=O)Nc1ccccc1-c1nc2cc(CN[C@H]3CCNC3)cnc2s1 [Compound 82]	878	224	–
O=C(Nc1ccccc1-c1nc2cc(CN3CCOCC3)cnc2s1)c1cncc(-c2ccccc2F)c1 [Compound 50]	533	207	–
O=C(Nc1ccccc1-c1nc2cc(CN3CCOCC3)cnc2s1)c1cccc(-c2ccccn2)c1 [Compound 4]	504	321	–
O=C(Nc1ccccc1-c1nc2cc(CN3CC[C@@H](F)C3)cnc2s1)c1cccc(-c2ccc[n+]([O-])c2)c1 [Compound 30]	986	142	–
O=C(Nc1ccccc1-c1nc2cc(CN3CCOCC3)cnc2s1)c1cccc(-c2ccccc2)c1 [Compound 1]	233	241	–
O=C(Nc1ccccc1-c1nc2cc(CN3CCNCC3)cnc2s1)c1cccc(-n2cccn2)c1 [Compound 44]	397	603	–
COCCN1CCN(Cc2cnc3sc(-c4ccccc4NC(=O)c4cncc(-c5ccccc5)c4)nc3c2)CC1 [Compound 35]	554	234	–
O=C(Nc1ccccc1-c1nc2cc(CN3CCC(F)(F)C3)cnc2s1)c1ccc2ccccc2n1 [Compound 101]	–	133	–
O=C(Nc1ccccc1-c1nc2cc(CN3CCNCC3)cnc2s1)c1nc2ccc(F)cc2o1 [Compound 126]	–	100	–
COCCN1CCN(Cc2cnc3sc(-c4ccccc4NC(=O)c4cc(-c5ccccc5)ncn4)nc3c2)CC1 [Compound 87]	955	166	–
COCCN1CCN(Cc2cnc3sc(-c4ccccc4NC(=O)c4cccc(-c5ccc(Cl)cc5)n4)nc3c2)CC1 [Compound 137]	214	448	–
O=C(Nc1ccccc1-c1nc2cc(CN3CCOCC3)cnc2s1)c1cn2cccnc2n1 [Compound 112]	2330	375	–
Cc1nc(-c2cccnc2)sc1C(=O)Nc1ccccc1-c1nc2cc(CN3CC[C@@H](N)C3)cnc2s1 [Compound 79]	1220	240	–
C[C@@H]1CN(Cc2cnc3sc(-c4ccccc4NC(=O)c4cccc(-c5ccccn5)c4)nc3c2)C[C@H](C)N1 [Compound 15]	627	531	–
CC(C)NCc1cnc2sc(-c3ccccc3NC(=O)c3cccc(-c4cccnc4)c3)nc2c1 [Compound 23]	1950	241	–

SMILES	EC1.5 (concentration of test compound that results in 150% activation of SIRT1) [NM]	Emax [%]	% FOLD ACT. (percent maximum fold activation of SIRT1) [%]
O=C(Nc1ccccc1-c1nc2cc(CN3CCOCC3)cnc2s1)c1cc(-c2ccccc2)n[nH]1 [Compound 3]	1620	246	–
O=C(Nc1ccccc1-c1nc2cc(CN3CC[C@H](F)C3)cnc2s1)c1ccc2ccccc2n1 [Compound 100]	1440	201	–
COCCN1CCN(Cc2cnc3sc(-c4ccccc4NC(=O)c4cccc(-c5cc(F)ccc5F)n4)nc3c2)CC1 [Compound 145]	86	500	–
O=C(Nc1ccccc1-c1nc2cc(CN3CCNCC3)cnc2s1)c1cnc2ccccc2n1 [Compound 63]	859	303	–
O=C(Nc1ccccc1-c1nc2cc(CN3CCNCC3)cnc2s1)c1ccn(-c2ccccc2)n1 [Compound 71]	1460	304	–
O=C(Nc1ccccc1-c1nc2cc(CN3CCC(O)CC3)cnc2s1)c1ccc2ccccc2n1 [Compound 99]	110	244	–
O=C(Nc1ccccc1-c1nc2cc(CN3CCOCC3)cnc2s1)c1cccc(-c2cccc(F)c2)n1 [Compound 53]	66	837	–
O=C(Nc1ccccc1-c1nc2cc(CN3CCOCC3)cnc2s1)c1ccc2cccnc2n1 [Compound 107]	500	219	–
Cc1nc(-c2cccc(C(=O)Nc3ccccc3-c3nc4cc(CN5CCNCC5)cnc4s3)c2)cs1 [Compound 46]	503	446	–
COCCN1CCN(Cc2cnc3sc(-c4ccccc4NC(=O)c4cccc(-c5csc(C)n5)c4)nc3c2)CC1 [Compound 41]	652	275	–
COCCN1CCN(Cc2cnc3sc(-c4ccccc4NC(=O)c4cnc5ccccc5n4)nc3c2)CC1 [Compound 130]	990	161	–
O=C(Nc1ccccc1-c1nc2cc(CN3CCNCC3)cnc2s1)c1cc(-c2ccccc2)no1 [Compound 62]	592	231	–
O=C(Nc1ccccc1-c1nc2cc(CN3CCOCC3)cnc2s1)c1cccc(-c2ncccn2)c1 [Compound 38]	548	292	–
O=C(Nc1ccccc1-c1nc2cc(CN3CCSCC3)cnc2s1)c1ccc2ccccc2n1 [Compound 108]	1060	178	–
COCCN1CCN(Cc2cnc3sc(-c4ccccc4NC(=O)c4cccc(-c5ccccc5C(F)(F)F)n4)nc3c2)CC1 [Compound 139]	230	457	–
NC1CCN(Cc2cnc3sc(-c4ccccc4NC(=O)c4cccc(-c5ccccn5)c4)nc3c2)CC1 [Compound 21]	162	906	–
O=C(Nc1ccccc1-c1nc2cc(CN[C@H]3CCNC3)cnc2s1)c1cccc(-c2ccccn2)c1 [Compound 37]	507	422	–
